Blank lines part the entries; values can stand above or below the molecule they belong to.
Key:
[1] = system: Human immunodeficiency virus type 1 reverse transcriptase (Human immunodeficiency virus 1), Q72547 [Y181C]; assay: Inhibitory activity against HIV-1 Y181C reverse transcriptase at 1 uM concentration
[2] = molecular target: Human immunodeficiency virus type 1 reverse transcriptase (Human immunodeficiency virus 1) (UniProt Q72547); assay: Inhibitory activity against HIV-1 wild-type reverse transcriptase at 1 uM concentration
[3] = system: Human immunodeficiency virus type 1 reverse transcriptase (Human immunodeficiency virus 1), Q72547 [R221A]; assay: Inhibitory activity against HIV-1 Y188L reverse transcriptase at 1 uM concentration
[4] = molecular target: Human immunodeficiency virus type 1 reverse transcriptase (Human immunodeficiency virus 1, UniProt Q72547, Y188L); assay: Inhibitory activity against HIV-1 Y188L reverse transcriptase.
[5] = molecular target: Human immunodeficiency virus type 1 reverse transcriptase (Human immunodeficiency virus 1, UniProt Q72547); assay: Inhibitory activity against HIV-1 wild-type reverse transcriptase.
[6] = molecular target: Human immunodeficiency virus type 1 reverse transcriptase (Human immunodeficiency virus 1, UniProt Q72547, Y181C); assay: Inhibitory activity against HIV-1 Y181C reverse transcriptase.
Homo sapiens [7] = species on record: Homo sapiens; assay: (§1) In vitro metabolism in human liver microsomes
[8] = molecular target: Human immunodeficiency virus type 1 reverse transcriptase (Human immunodeficiency virus 1, UniProt Q72547, K103N); assay: Inhibitory activity against HIV-1 Mutant Reverse transcriptase K103N
[9] = Compound was tested for its toxicity by using MTT toxicity assay.
[10] = system: Human immunodeficiency virus type 1 reverse transcriptase (Human immunodeficiency virus 1), Q72547 [R221A]; assay: Inhibitory activity against HIV-1 Y188L reverse transcriptase t 1 uM concentration
C8166 [11] = assay: (§2) Inhibitory activity against HIV-1 IIIB replication in C8166 cells.; assay type: functional, cell-based; conditions: Homo sapiens
C8166 [12] = assay: as §2; assay type: functional; conditions: Homo sapiens
Homo sapiens [13] = species on record: Homo sapiens; assay: as §1; assay type: ADME

SMILES: CCN1c2ncc(OCc3ccccc3)cc2C(=O)N(C)c2ccc(Cl)nc21
inhibition [1]: 0%
inhibition [2]: 20%
inhibition [3]: 0%

SMILES: CCN1c2ncc(COc3ccccc3C(=O)OC)cc2C(=O)N(C)c2ccc(Cl)nc21
inhibition [1]: 2%
inhibition [2]: 25%
inhibition [3]: 2%

SMILES: CCN1c2ncc(COc3ccnc(C)c3)cc2C(=O)N(C)c2ccc(Cl)nc21
IC50 [4]: 230 nM
IC50 [5]: 30 nM
IC50 [6]: 30 nM

SMILES: CCN1c2ncc(COc3ccncc3)cc2C(=O)N(C)c2ccc(F)nc21
Metabolism (Homo sapiens [7]): 41 pmol/min/mg
IC50 [5]: 50 nM
IC50 [8]: 40 nM
IC50 [6]: 190 nM
CC30 [9]: 160000 nM

SMILES: CCN1c2ncc(COc3cccc4[nH]ccc34)cc2C(=O)N(C)c2ccc(Cl)nc21
Metabolism (Homo sapiens [7]): 208 pmol/min/mg
IC50 [4]: 1360 nM
IC50 [5]: 330 nM
IC50 [6]: 200 nM
CC30 [9]: > 30000 nM

SMILES: CCN1c2ncc(CNc3cccc(N)c3)cc2C(=O)N(C)c2ccc(Cl)nc21
IC50 [5]: 60 nM
IC50 [6]: 100 nM
CC30 [9]: 60000 nM

SMILES: CCN1c2ncc(C(=O)N(C)c3ccccc3)cc2C(=O)N(C)c2ccc(Cl)nc21
inhibition [1]: 20%
inhibition [2]: 15%
inhibition [10]: 46%

SMILES: CCN1c2ncc(COc3cc[n+]([O-])cc3)cc2C(=O)N(C)c2cccnc21
IC50 [5]: 210 nM
IC50 [6]: 1340 nM

SMILES: CCN1c2ncc(COc3cc[n+]([O-])cc3)cc2C(=O)N(C)c2ccc(Cl)nc21
inhibition [1]: 39%
IC50 [5]: 230 nM
inhibition [3]: 0%

SMILES: CCN1c2ncc(COc3ccc(F)cc3)cc2C(=O)N(C)c2ccc(Cl)nc21
IC50 [5]: 280 nM
IC50 [6]: 1660 nM

SMILES: CCN1c2ncc(COc3cccc(N)c3)cc2C(=O)N(C)c2ccc(Cl)nc21
IC50 (C8166 [11]): 19 nM
IC90 (C8166 [12]): 36 nM
IC50 [4]: 370 nM
IC50 [5]: 50 nM
IC50 [6]: 100 nM

SMILES: CCN1c2ncc(COc3ccc4[nH]ccc4c3)cc2C(=O)N(C)c2ccc(Cl)nc21
IC50 [5]: 310 nM
IC50 [6]: 90 nM

SMILES: CCN1c2ncc(CS(=O)(=O)c3ccccc3)cc2C(=O)N(C)c2ccc(Cl)nc21
Metabolism (Homo sapiens [7]): 322 pmol/min/mg
IC50 [4]: 11000 nM
IC50 [5]: 100 nM
IC50 [6]: 60 nM

SMILES: CCN1c2ncc(COc3cccc(C(=O)OC)c3)cc2C(=O)N(C)c2ccc(Cl)nc21
inhibition [1]: 23%
IC50 [5]: 700 nM
inhibition [3]: 11%

SMILES: CCN1c2ncc(CN(C)c3ccccc3)cc2C(=O)N(C)c2ccc(Cl)nc21
inhibition [1]: 18%
IC50 [5]: 590 nM
inhibition [3]: 17%

SMILES: CCN1c2ncc(COc3ccc(C(=O)OC)cc3)cc2C(=O)N(C)c2ccc(Cl)nc21
inhibition [1]: 33%
IC50 [5]: 800 nM
inhibition [3]: 0%

SMILES: CCN1c2ncc(COc3cc[n+]([O-])cc3)cc2C(=O)N(C)c2ccc(F)nc21
inhibition [3]: 31%

SMILES: CCN1c2ncc(CSc3ncccn3)cc2C(=O)N(C)c2ccc(Cl)nc21
IC50 [5]: 30 nM
IC50 [6]: 60 nM

SMILES: CCN1c2ncc(COc3cccc(C(=O)O)c3)cc2C(=O)N(C)c2ccc(Cl)nc21
IC50 [5]: 90 nM
IC50 [8]: 190 nM
IC50 [6]: 550 nM
CC30 [9]: 250000 nM

Metabolism (Homo sapiens [7]): 144 pmol/min/mg
SMILES: CC(C)Nc1cccnc1N1CCN(C(=O)c2cc3cc(NS(C)(=O)=O)ccc3[nH]2)CC1 [DELAVIRDINE]

SMILES: CCN1c2ncc(COc3cccc(F)c3)cc2C(=O)N(C)c2ccc(Cl)nc21
inhibition [1]: 11%
inhibition [2]: 24%
inhibition [3]: 16%

SMILES: CCN1c2ncc(COc3cc[n+]([O-])c(C)c3)cc2C(=O)N(C)c2ccc(Cl)nc21
IC50 [4]: 4310 nM
IC50 [5]: 100 nM
IC50 [6]: 210 nM

SMILES: CCN1c2ncc(COc3ccnc(C(F)(F)F)c3)cc2C(=O)N(C)c2ccc(Cl)nc21
Metabolism (Homo sapiens [7]): 206 pmol/min/mg
IC50 [5]: 40 nM
IC50 [6]: 70 nM

SMILES: CCN1c2ncc(COc3cccc([N+](=O)[O-])c3)cc2C(=O)N(C)c2ccc(Cl)nc21
IC50 [5]: 170 nM
IC50 [6]: 350 nM

SMILES: CCN1c2ncc(CSc3ccncc3)cc2C(=O)N(C)c2ccc(Cl)nc21
Metabolism (Homo sapiens [7]): 372 pmol/min/mg
IC50 [5]: 20 nM
IC50 [6]: 50 nM

SMILES: CCN1c2ncc(COc3ccncc3)cc2C(=O)N(C)c2ccc(Cl)nc21
Metabolism (Homo sapiens [7]): 53 pmol/min/mg
IC50 (C8166 [11]): 6 nM
IC90 (C8166 [12]): 24 nM
IC50 [5]: 70 nM
IC50 [8]: 70 nM
IC50 [6]: 260 nM
CC30 [9]: > 120000 nM

SMILES: CCN1c2ncc(C[S+]([O-])c3ccccc3)cc2C(=O)N(C)c2ccc(Cl)nc21 (configuration not stated)
IC50 [4]: 2420 nM
IC50 [5]: 70 nM
IC50 [6]: 140 nM
CC30 [9]: 45000 nM

SMILES: CCN1c2ncc(COc3cccc(C(N)=O)c3)cc2C(=O)N(C)c2ccc(Cl)nc21
Metabolism (Homo sapiens [7]): 292 pmol/min/mg
IC50 [4]: 340 nM
IC50 [5]: 30 nM
IC50 [6]: 280 nM
CC30 [9]: 130000 nM

SMILES: CCN1c2ncc(CCc3ccccc3)cc2C(=O)N(C)c2ccc(Cl)nc21
Metabolism (Homo sapiens [7]): 288 pmol/min/mg
IC50 [4]: 960 nM
IC50 [5]: 50 nM
IC50 [8]: 50 nM
IC50 [6]: 150 nM

SMILES: Cc1ccnc2c1NC(=O)c1cccnc1N2C1CC1 [NEVIRAPINE]
Metabolism (Homo sapiens [13]): 2 pmol/min/mg

SMILES: CCN1c2ncc(CCc3ccncc3)cc2C(=O)N(C)c2ccc(Cl)nc21
Metabolism (Homo sapiens [7]): 145 pmol/min/mg
IC50 [4]: 1850 nM
IC50 [5]: 80 nM
IC50 [8]: 120 nM
IC50 [6]: 120 nM

SMILES: CCN1c2ncc(CSc3[nH]cnc4nncc3-4)cc2C(=O)N(C)c2ccc(Cl)nc21
Metabolism (Homo sapiens [7]): 336 pmol/min/mg
IC50 [4]: 120 nM
IC50 [5]: 50 nM
IC50 [6]: 70 nM
CC30 [9]: 40000 nM

SMILES: CCN1c2ncc(CSc3ccccc3)cc2C(=O)N(C)c2ccc(Cl)nc21
Metabolism (Homo sapiens [7]): 554 pmol/min/mg
IC50 (C8166 [11]): 5 nM
IC90 (C8166 [12]): 13 nM
IC50 [4]: 30 nM
IC50 [5]: 20 nM
IC50 [8]: 30 nM
IC50 [6]: 10 nM
CC30 [9]: > 60000 nM

SMILES: CCN1c2ncc(CNc3ccccc3)cc2C(=O)N(C)c2ccc(Cl)nc21
IC50 [5]: 80 nM
IC50 [8]: 50 nM
IC50 [6]: 370 nM
CC30 [9]: > 60000 nM

SMILES: CCN1c2ncc(COc3ccccc3O)cc2C(=O)N(C)c2ccc(Cl)nc21
IC50 [5]: 100 nM
IC50 [6]: 350 nM

SMILES: CCN1c2ncc(COc3cccnc3)cc2C(=O)N(C)c2ccc(Cl)nc21
IC50 [5]: 190 nM
IC50 [6]: 260 nM

SMILES: CCN1c2ncc(COc3cc[n+]([O-])c(C(F)(F)F)c3)cc2C(=O)N(C)c2ccc(Cl)nc21
IC50 [5]: 120 nM
IC50 [6]: 270 nM

SMILES: CCN1c2ncc(COc3ccncc3)cc2C(=O)N(C)c2cccnc21
IC50 [4]: 5520 nM
IC50 [5]: 20 nM
IC50 [8]: 50 nM
IC50 [6]: 140 nM
CC30 [9]: > 256000 nM

SMILES: CCN1c2ncc(N(C)C(=O)c3ccccc3)cc2C(=O)N(C)c2ccc(Cl)nc21
inhibition [1]: 22%
IC50 [5]: 210 nM
inhibition [3]: 13%

SMILES: CCN1c2ncc(COc3cccc(N(C)C)c3)cc2C(=O)N(C)c2ccc(Cl)nc21
inhibition [1]: 0%
inhibition [2]: 0%
inhibition [3]: 7%

SMILES: CCN1c2ncc(NCc3ccccc3)cc2C(=O)N(C)c2ccc(Cl)nc21
IC50 [5]: 260 nM
IC50 [6]: 390 nM
inhibition [3]: 0%

SMILES: CCN1c2ncc(COc3cccc(OC)c3)cc2C(=O)N(C)c2ccc(Cl)nc21
IC50 [5]: 100 nM
IC50 [8]: 130 nM
IC50 [6]: 280 nM

SMILES: CCN1c2ncc(COc3ccccc3)cc2C(=O)N(C)c2ccc(Cl)nc21
Metabolism (Homo sapiens [7]): 171 pmol/min/mg
IC50 (C8166 [11]): 50 nM
IC90 (C8166 [12]): 113 nM
IC50 [4]: 640 nM
IC50 [5]: 110 nM
IC50 [8]: 20 nM
IC50 [6]: 60 nM
CC30 [9]: > 60000 nM

SMILES: CCN1c2ncc(COc3ccc(O)cc3)cc2C(=O)N(C)c2ccc(Cl)nc21
inhibition [1]: 27%
IC50 [5]: 210 nM
inhibition [3]: 21%

Reference: ChEMBL document CHEMBL1131307, “Novel nonnucleoside inhibitors of HIV-1 reverse transcriptase. 8. 8-Aryloxymethyl- and 8-arylthiomethyldipyridodiazepinones” (J Med Chem, 1998)
